Assay results from patent US7098304B1, “Assay for the diagnosis of schizophrenia based on a new peptide” (Yeda Research and Development Co. Ltd., priority 1998, dated 2006).

Experiments:
[1] = system: SDAs as compared to NSDAs; assay: Binding activity of peptides line-blotted onto PVDF to SDAs as compared to NSDAs; design: species or system human; key to Activity: showed a substantially higher binding activity to SDAs as compared to their binding to NSDAs (indicated as YES in the table); No: showed no significant differences in their binding to samples from schizophrenic and non-schizophrenic individuals (designed as no in the table); details: for Activity: binding to SDAs versus NSDAs
Method: (§1) 1. Platelets and Anti-Platelet Autoantibodies Venous blood (20 ml) was drawn with heparin as anticoagulant from patients and control subjects. Platelet rich plasma (PRP) was obtained by centrifugation (100 g for 20 mins) at room temperature. Plasma free platelets were obtained by washing them three times with phosphate buffered saline (PBS) supplemented with 10 ml mM EDTA as anticoagulant (4000 g; 15 mins; 4° C.). For the isolation of anti-platelet antibodies, the platelets were incubated with 0.1 M glycine/10 mM EDTA, pH 2.8, for 10 min. at room temperature and then centrifuged (4000 g; 15 min; 4° C.). The supernatant containing the anti-platelet antibodies, was neutralized with saturated Na2PO4 solution and stored at −20 until use. 2. Preparative Isoelectric Focusing
(§2) The fractions were analyzed for immuno-reactivity by polyacrylamide (10%) gel electrophoresis, blotting the proteins onto PVDF membranes and probing the membrane with 1 ml auto-antibodies in 50 ml incubation buffer. Anti-human Fc conjugated to horseradish peroxidase (goat) from SIGMA (1:500 dilution) and Fast-DAB™ (SIGMA) or 4-Chloro-naphthol (SIGMA) were used as color reagent in order to detect bound human anti-platelet antibodies.
(§3) Various peptides were synthesized on Abimed 522 at a 10 micromol scale by Eurosequence b.v. Peptides were routinely dissolved in 1 ml water/DMF/DMSO (1:1:1;v/v/v). Peptides were line-blotted onto PVDF membranes and tested for immuno-reactivity as described above.
Based on the sequence of the epitope identified in the digested proteins, a number of peptides were synthesized by the method described in 1.8 above. The synthesized peptides were then evaluated for their binding activity to SDAs as compared to NSDAs as described above.

[2] = system: NSDAs (non-schizophrenic derived antibodies); assay: Reactivity of proteins to NSDAs (platelet autoantibodies from control non-schizophrenic individuals), blot with anti-human Fc-HRP; assay type: binding; details: number of NSDA samples that reacted positively with the enzyme, of 8 controls
Method: as §1, §2
(§4) Every fifth fraction (0.1 ml) was dot blotted onto PVDF membranes using the DotBlot device (96 wells) from BioRad. Immuno-reactive fractions were then detected as described above (1.3)
(§5) The binding activity of the above two enzymes was then tested by reacting them with SDAs (prepared from samples obtained from schizophrenic patients) and to NSDA (prepared from control non-schizophrenic individuals).

[3] = system: SDAs (schizophrenic derived antibodies); assay: Reactivity of proteins to SDAs (platelet autoantibodies from schizophrenic patients), blot with anti-human Fc-HRP; assay type: binding; details: number of SDA samples that reacted positively with the enzyme, of 8 patients
Method: as §1, §2, §4, §5

[4] = system: PAAs obtained from non-schizophrenic individuals; assay: Binding of peptide to isolated PAAs from non-schizophrenic individuals; design: species or system human; details: isolated PAAs from eight different non-schizophrenic individuals, FIG. 1B
Method: as §1, §2
(§6) Various peptides were synthesized on Abimed 522 at a 10 micromol scale by Eurosequence b.v. Peptides were routinely dissolved in 1 ml water/DMF/DMSO (1:1:1;v/v/v). […]

[5] = system: NSDA in plasma samples from non-schizophrenic individuals; assay: Binding of peptide to plasma samples from non-schizophrenic individuals; design: species or system human; details: plasma samples of fifteen non-schizophrenic individuals, FIG. 2B
Method: as §2, §3
(§7) The capability of Peptide 14 (SEQ ID NO: 3) to bind SDA in plasma samples obtained from schizophrenic patients was then tested. […] Peptide 14 (SEQ ID NO: 10) was used as a negative control.

[6] = system: SDA in plasma samples obtained from schizophrenic patients; assay: Binding of peptide to plasma samples from schizophrenic patients; design: species or system human; details: plasma samples of five schizophrenic patients, FIG. 2A
Method: as §2, §3, §7

[7] = system: PAAs obtained from schizophrenic patients (SDA); assay: Binding of peptide to isolated PAAs from schizophrenic patients; design: species or system human
Method: as §1, §2, §6

Substance	Activity [1]	other results
2 (SGETEDTFIADLVVGLCTGQIKTGAPCR; being the immunologically active epitope) [compound 2]	YES	
3 (LVVGLCTCQIKTGPAC; peptide capable of binding antibodies that are found in elevated levels in body fluids of schizophrenic patients.) [compound 3]	YES	
4 (IADLVVGLCTGQIKTGAPCR; peptide capable of binding antibodies that are found in elevated levels in body fluids of schizophrenic patients.) [compound 4]	YES	
5 (ADLVVGLCTGQIKTGAPCR; peptide capable of binding antibodies that are found in elevated levels in body fluids of schizophrenic patients.) [compound 5]	YES	
6 (DLVVGLCTGQIKTGAPCR; peptide capable of binding antibodies that are found in elevated levels in body fluids of schizophrenic patients.) [compound 6]	YES	
7 (LVVGLCTGQIKTGAPCR; peptide capable of binding antibodies that are found in elevated levels in body fluids of schizophrenic patients.) [compound 7]	YES	
8 (LVVGLCTGQIKTGPACR; peptide capable of binding antibodies that are found in elevated levels in body fluids of schizophrenic patients.) [compound 8]	YES	
9 (LVVGLCTPQIKTGPACR; peptide capable of binding antibodies that are found in elevated levels in body fluids of schizophrenic patients.) [compound 9]	YES	
10 (SGETEDTFIADLVVGLCTGQ; peptide capable of binding antibodies that are found in elevated levels in body fluids of schizophrenic patients.) [compound 10]	No	
11 (VVGLCTGQIKTGAPCR; peptide capable of binding antibodies that are found in elevated levels in body fluids of schizophrenic patients.) [compound 11]	No	
12 (CTGQIKTGAPCR; peptide capable of binding antibodies that are found in elevated levels in body fluids of schizophrenic patients.) [compound 12]	No	
13 (LVVGLCTGQIKTGAPC; peptide capable of binding antibodies that are found in elevated levels in body fluids of schizophrenic patients.) [compound 13]	No	
15 (LVVGLCTGQIKTGPAC; peptide capable of binding antibodies that are found in elevated levels in body fluids of schizophrenic patients.) [compound 15]	No	
G-3-P-Dehydrogenase from chicken: glyceraldehyde-3-phosphate dehydrogenase (G3PD) enzyme from chicken		Controls (n = 8) Positive [2]: 2/8; Patients (n = 8) Positive [3]: 7/8
G-3-P-Dehydrogenase from human: glyceraldehyde-3-phosphate dehydrogenase (G3PD) enzyme from human		Controls (n = 8) Positive [2]: 1/8; Patients (n = 8) Positive [3]: 7/8
G-3-P-Dehydrogenase from pig: glyceraldehyde-3-phosphate dehydrogenase (G3PD) enzyme from pig		Controls (n = 8) Positive [2]: 1/8; Patients (n = 8) Positive [3]: 8/8
LVVGLCTCQIKTGPAC (peptide capable of binding antibodies that are found in elevated levels in body fluids of schizophrenic patients.) [SEQ ID NO: 3]	No	ranking of binding to antibodies found in high levels in schizophrenic patients ([1]; among the synthesized peptides): most capable of binding; binding to PAAs from non-schizophrenic individuals [4]: did not bind; plasma samples of non-schizophrenic individuals whose NSDA was not bound [5]: fourteen out of fifteen; SDA in plasma of schizophrenic patients positively bound [6]: four out of five; PAAs from schizophrenic patients positively bound ([7]; isolated PAAs from eight different schizophrenic patients, FIG. 1A): seven out of eight; binding activity to SDA, dimer form versus non-dimer form ([7]; ring via two cysteins and dimer via free cystein after overnight in water/DMF/DMSO): the dimer form of the peptide was much more active in binding SDAs than the non-dimer form
SGETEDTFIADLVVGLCTGQIKTGAPCR (being the immunologically active epitope) [SEQ ID NO: 2]		immunological activity of peptide from enzymatic digest of Enolase ([1]; binding SDAs to a higher extent than NSDAs, amino acids 372-399): immunologically active
